# BindingDB's records for doi:10.1016/0960-894X(96)00014-5 (1996)
# Assay: Compound was tested for inhibition of chymotrypsin-like protease of proteasome from postmortem human liver and brain
row,SMILES,IC50 [nM]
1,CC(C)CC(NC(=O)C(CCCN=C(N)N[N+](=O)[O-])NC(=O)C(CCCCCCCCC#N)C1CCCC1)B1OC(C)(C)C(C)(C)O1 (stereo not drawn) [Alpha-ketocarbonyl boronic ester derivative],8
2,CC(C)CC(C=O)NC(=O)C(CCCN=C(N)N[N+](=O)[O-])NC(=O)C(CCCCCCCCN1C(=O)c2ccccc2C1=O)C1CCCC1 (stereo not drawn) [Alpha-ketocarbonyl derivative],2
3,CC(C)CC(NC(=O)C(CCCN=C(N)N[N+](=O)[O-])NC(=O)C(CCCCCCCCC#N)C1CCCC1)C(=O)CCl (stereo not drawn) [Alpha-ketocarbonyl derivative],> 1000
